In patent publication US12358901B2, “KV3 modulators” (priority 2018, dated 2025):

Tests used:
[1] = target: human Kv3.1 channels (hKv3.1) (Homo sapiens, UniProt P48547); assay: cell-based; format: cell-based; conditions: for Kv3.1 pEC50: HEK-hKv3.1 cells, -15 mV voltage step, normalised to 50 microM reference compound; for Kv3.1 max R %: maximum response relative to reference compound (50 microM)
Excerpt: The ability of the compounds of the invention to modulate the voltage-gated potassium channel subtypes Kv3.3/Kv3.2/Kv3.1 may be determined using the following assay. Analogous methods may be used to investigate the ability of the compounds of the invention to modulate other channel subtypes.
To assess compound effects on human Kv3.1 channels (hKv3.1):
Human embryonic kidney (HEK)-hKv3.1 cell line is generated by transfecting HEK-293 cells with an expression vector with human Kv3.1 (NM_004976.4). Cells are cultured with MEM supplemented with 10% Heat-Inactivated FBS, 2 mM L-glutamine, 1% Penicillin-Streptomycin, and 0.6 mg/ml of Geneticin (G418). HEK-hKv3.1b cells were amplified in T175 cm2 flask at 37° C. with 5% CO2, using MEM amplification medium, containing the G418 selection antibiotic (0.6 mg/ml). Cells were detached every 3-4 days, using DPBS to wash twice the flask, then TrypLE to dislodge the cells, and re-plated at a density of 2-4×10^6 cells/flask.
The day of the experiment, cells are removed from the incubator and the culture medium removed. Cells are washed with 5 ml of Dulbecco's PBS (DPBS) calcium and magnesium free and detached by the addition of 3 ml Versene (Invitrogen, Italy) followed by a brief incubation at 37° C. for 5 minutes. The flask is tapped to dislodge cells and 10 ml of DPBS containing calcium and magnesium is added to prepare a cell suspension. The cell suspension is then placed into a 15 ml centrifuge tube and centrifuged for 2 min at 1200 rpm. After centrifugation, the supernatant is removed and the cell pellet re-suspended in 4 ml of DPBS containing calcium and magnesium using a 5 ml pipette to break up the pellet. Cell suspension volume is then corrected to give a cell concentration for the assay of approximately 3 million cells per ml.
Experiments are conducted at r.t. using IonWorks Quattro™ planar array electrophysiology technology (Molecular Devices Corp.) with PatchPlate™ PPC. Stimulation protocols and data acquisition are carried out using a microcomputer (Dell Pentium 4). Planar electrode hole resistances (Rp) are determined by applying a 10 mV voltage step across each well. These measurements are performed before cell addition. After cell addition and seal formation, a seal test is performed by applying a voltage step from −80 mV to −70 mV for 160 ms. Following this, amphotericin-B solution is added to the intracellular face of the electrode to achieve intracellular access. Cells are held at −70 mV. Leak subtraction is conducted in all experiments by applying 50 ms hyperpolarizing (10 mV) prepulses to evoke leak currents followed by a 20 ms period at the holding potential before test pulses.
For hKv3.2 and hKv3.1, assays from the holding potential of −70 mV, a first test pulse at −15 mV was applied for 100 ms and after 100 ms at −70 mV a second pulse at +40 mV was applied for 50 ms. Cells were then maintained for 100 ms at −100 mV and another pulse from −70 mV to +40 mV (duration 50 ms) was applied to clamp later the voltage at −40 mV during 200 ms
The intracellular solution contains the following (in mM): K-gluconate 100, KCl 54, MgCl2 3.2, HEPES 5, adjusted to pH 7.3 with KOH. Amphotericin-B solution is prepared as 50 mg/ml stock solution in DMSO and diluted to a final working concentration of 0.1 mg/ml in intracellular solution. The external solution is Dulbecco's Phosphate Buffered Saline (DPBS) and contained the following (in mM): CaCl2 0.90, KCl 2.67, KH2PO4 1.47, MgCl·6H2O 0.493, NaCl 136.9, Na3PO4 8.06, with a pH of 7.4.
Compounds of use in the invention (or reference compounds such as N-cyclohexyl-N-[(7,8-dimethyl-2-oxo-1,2-dihydro-3-quinolinyl)methyl]-N-phenylurea) are dissolved in dimethylsulfoxide (DMSO) at a stock concentration of 10 mM. These solutions are further diluted with DMSO using a Biomek FX (Beckman Coulter) in a 384 compound plate. Each dilution (1 μL) is transferred to another compound plate and external solution containing 0.05% pluronic acid (66 μL) is added. […]

[2] = tested on: Salmonella typhimurium (TA1535, TA1537, TA98 and TA100) and Escherichia coli WP2 uvrA (pKM101); assay: Ames testing (bacterial mutagenicity, with and without S9-mix); conditions: aniline associated with the compound; absence and presence of S9-mix
[3] = Determination of brain tissue binding (equilibrium dialysis); format: in vitro ADME; conditions: Sprague Dawley, rat whole brain homogenate, 5 h at 37° C.
Procedure: Sprague Dawley rat whole blood, collected on the week of the experiment using K3-EDTA as an anti-coagulant, is diluted with isotonic phosphate buffer 1:1 (v/v). Sprague Dawley rat whole brain, stored frozen at −20° C., is thawed and homogenised in artificial cerebrospinal fluid (CSF) 1:2 (w/v).
An appropriate amount of test compound is dissolved in DMSO to give a 10 millimolar solution. Further dilutions, to obtain a 166.7 micromolar working solution are then prepared using 50% acetonitrile in MilliQ water. This working solution is used to spike the blood to obtain a final concentration of 0.5 micromolar in whole blood. Similarly, the working solution is used to spike brain samples to obtain a final concentration of 5 micromolar in whole brain. From these spiked blood and brain preparations, control samples (n=3), are immediately extracted and used to calculate the initial recovery of the test items.
150 microL of compound-free buffer (isotonic phosphate buffer for blood or artificial CSF buffer for brain) is dispensed in one half-well and 150 microL of spiked matrix (blood or brain) is loaded in the other half-well, with the two halves separated by a semi-permeable membrane. After an equilibration period of 5 h at 37° C., 50 microL of dialysed matrix (blood or brain) is added to 50 microL of corresponding compound-free buffer, and vice-versa for buffer, such that the volume of buffer to matrix (blood or brain) remains the same. Samples are then extracted by protein precipitation with 300 microL of acetonitrile containing rolipram (control for positive ionization mode) or diclofenac (control for negative ionization mode) as internal standards and centrifuged for 10 min at 3000 rpm. Supernatants are collected (100 microL), diluted with 27% AcN in MilliQ water (200 microL) and then injected into an HPLC-MS/MS or UPLC-MS/MS system to determine the concentration of test compound present.
Blood and brain tissue binding are then determined using the following formulas: Afu=Buffer/Blood or Afu=CSF/Brain
Where Afu=apparent fraction unbound; Buffer=analyte/internal standard ratio determined in the buffer compartment; Blood=analyte/internal standard ratio determined in the blood compartment; Brain=analyte/internal standard ratio determined in the brain compartment.
[formula] where: fucr=Fraction unbound corrected; D=matrix dilution factor (D=2 for blood and D=3 for brain).
Then: % Binding=(1−fucr)×100 % Unbound=100−% Bound Brain/Blood Partition Ratio (Kbb) Determination

Row | SMILES | pEC50 and maxR in the Kv3.1 assay (in words) [1] | Kv3.1 pEC50 [1] | Kv3.1 max R % [1] [%] | Ames Result (associated aniline) [2] | fraction unbound at 5 h, 5 micromolar [3]
1 | Cc1ccc(Oc2cncc(N3C(=O)NC(C)(C)C3=O)n2)c2c1OCC21CC1 [RE10, reference compound] | greatly reduced pEC50 and maxR | <4.3 | 22 |  | 
2 | Cc1ccc(Oc2cnc(N3C(=O)NC4(CCC4)C3=O)cn2)c2c1OCC21CC1 [Example 13, 7-[5-(7-methylspiro[2H-benzofuran-3,1′-cyclopropane]-4-yl)oxypyrazin-2-yl]-5,7-diazaspiro[3.4]octane-6,8-dione] |  | 5.09 | 165 |  | 
3 | Cc1ccc(Oc2ccc(N3C(=O)NC(C)(C)C3=O)nc2)cc1OC(F)(F)F [RE3, reference compound] |  | 4.89 | 79 |  | 
4 | Cc1ccc(Oc2ccc(N3C(=O)NC(C)(C)C3=O)cn2)cc1OC(F)(F)F [RE2, reference compound] |  | 5.25 | 118 |  | 
5 | Cc1ccc(Oc2cnc(N3C(=O)NC(C)(C)C3=O)cn2)cc1OC(F)(F)F [RE4, reference compound] |  | <4.3 | 24 |  | 
6 | Nc1cnc(Oc2cccc3c2C2(CC2)CO3)cn1 [aniline for Example 10] |  |  |  | Non-mutagenic | 
7 | Cc1ccc(Oc2ncc(N3C(=O)NC(C)(C)C3=O)cn2)cc1OC(F)(F)F [RE1, reference compound] |  | 4.78 | 105 |  | 
8 | CC[C@H]1NC(=O)N(c2cnc(Oc3cccc4c3C(C)(C)CO4)cn2)C1=O [Example 11, (5R)-3-[5-[(3,3-dimethyl-2H-benzofuran-4-yl)oxy]pyrazin-2-yl]-5-ethyl-imidazolidine-2,4-dione] |  | 4.89 | 165 |  | 
9 | CC[C@@]1(C)NC(=O)N(c2cnc(Oc3ccc(C)c4c3C(C)(C)CO4)cn2)C1=O [Example 8, (5R)-5-ethyl-5-methyl-3-[5-[(3,3,7-trimethyl-2H-benzofuran-4-yl)oxy]pyrazin-2-yl]imidazolidine-2,4-dione] |  | 5.29 | 119 |  | 
10 | CC[C@@]1(C)NC(=O)N(c2cnc(Oc3ccc(C)c4c3C3(CC3)CO4)cn2)C1=O [Example 5, (5R)-5-ethyl-5-methyl-3-[5-(7-methylspiro[2H-benzofuran-3,1′-cyclopropane]-4-yl)oxypyrazin-2-yl]imidazolidine-2,4-dione] |  | 5.69 | 149 |  | 
11 | CC1(C)NC(=O)N(c2cnc(Oc3cccc4c3C3(CC3)CO4)cn2)C1=O [Example 4, 5,5-dimethyl-3-(5-spiro[2H-benzofuran-3,1′-cyclopropane]-4-yloxypyrazin-2-yl)imidazolidine-2,4-dione] |  | 5.17 | 170 |  | 
12 | CC[C@H]1NC(=O)N(c2ccc(Oc3ccc(C)c4c3C3(CC3)CO4)cn2)C1=O [RE12, reference compound] |  | 5.6 | 149 |  | 0.019
13 | CC[C@H]1NC(=O)N(c2cnc(Oc3ccc(C)c4c3C(C)(C)CO4)cn2)C1=O [Example 12, (5R)-5-ethyl-3-[5-[(3,3,7-trimethyl-2H-benzofuran-4-yl)oxy]pyrazin-2-yl]imidazolidine-2,4-dione] |  | 5.56 | 118 |  | 
14 | Cc1ccc(Oc2cnc(N3C(=O)NC(C)(C)C3=O)nc2)c2c1OCC21CC1 [RE8, reference compound] |  | 4.98 | 42 |  | 
15 | CC1(C)NC(=O)N(c2cnc(Oc3cccc4c3C(C)(C)CO4)cn2)C1=O [Example 2, 3-[5-[(3,3-dimethyl-2H-benzofuran-4-yl)oxy]pyrazin-2-yl]-5,5-dimethyl-imidazolidine-2,4-dione] |  | 4.68 | 149 |  | 
16 | CC[C@@]1(C)NC(=O)N(c2cnc(Oc3cccc4c3C3(CC3)CO4)cn2)C1=O [Example 3, (5R)-5-ethyl-5-methyl-3-(5-spiro[2H-benzofuran-3,1′-cyclopropane]-4-yloxypyrazin-2-yl)imidazolidine-2,4-dione] |  | 5.15 | 205 |  | 
17 | CC[C@H]1NC(=O)N(c2ccc(Oc3cccc4c3C3(CC3)CO4)cn2)C1=O [RE14, reference compound] |  | 5.2 | 150 |  | 0.058
18 | CC[C@@]1(C)NC(=O)N(c2cnc(Oc3cccc4c3C(C)(C)CO4)cn2)C1=O [Example 6, (5R)-3-[5-[(3,3-dimethyl-2H-benzofuran-4-yl)oxy]pyrazin-2-yl]-5-ethyl-5-methyl-imidazolidine-2,4-dione] |  | 4.75 | 165 |  | 
19 | Cc1ccc(Oc2cnc(N3C(=O)NC(C)(C)C3=O)cn2)c2c1OCC2(C)C [Example 7, 5,5-dimethyl-3-[5-[(3,3,7-trimethyl-2H-benzofuran-4-yl)oxy]pyrazin-2-yl]imidazolidine-2,4-dione] |  | 5.12 | 134 |  | 
20 | Cc1ccc(Oc2ccc(N3C(=O)NC(C)(C)C3=O)nc2)c2c1OCC21CC1 [RE7, reference compound] |  | 5.56 | 130 |  | 0.023
21 | Cc1ccc(Oc2ccc(N3C(=O)NC(C)(C)C3=O)nn2)c2c1OCC21CC1 [RE9, reference compound] |  | <4.3 | 16 |  | 
22 | Cc1ccc(Oc2cnc(N3C(=O)NC4(CC4)C3=O)cn2)c2c1OCC21CC1 [Example 14, 6-[5-(7-methylspiro[2H-benzofuran-3,1′-cyclopropane]-4-yl)oxypyrazin-2-yl]-4,6-diazaspiro[2.4]heptane-5,7-dione] |  | 5.51 | 145 |  | 
